{
  "source": "patent US8481789B2",
  "about": "“Method for producing natural 9-decen-2-one by bioconverting undecylenic acid using a mold, and use in the perfume and food flavoring fields” (priority 2008, dated 2013)",
  "key": {"[1]": {"system": "rabbits", "test": "Acute dermal irritation (OECD guideline No. 404, method B.4)", "type": "in vivo, rabbit", "details": "3 rabbits", "experimental": "The molecule was tested on 3 rabbits according to the experimental protocol established by “the OECD guideline No. 404 dated Apr. 24, 2002” and the test “method B.4 of the Directive No. 2004/73/EC): Acute dermal irritation”.\nIt emerges therefrom that 9-decen-2-one is not irritant and that no hazard symbol or phrases are required for its use (according to the “EEC Directives 67/548/59 and 99/45”)."}, "[2]": {"system": "rabbits", "test": "Acute eye irritation (OECD guideline No. 405, method B.5)", "type": "in vivo, rabbit", "details": "3 rabbits", "experimental": "Similarly, the molecule was tested on 3 rabbits according to the experimental protocol established by “the OECD guideline No. 405 dated Apr. 24, 2002” and the test “method B.5 of the Directive No. 2004/73/EC): Acute eye irritation”.\nIt also emerges therefrom that 9-decen-2-one is not irritant and that no hazard symbol or phrases are required for its use (according to the “EEC Directives 67/548/59 and 99/45”)."}, "[3]": {"test": "LD50 test (acute oral toxicity)", "details": "in vivo"}},
  "data": [
    {"smiles": "C=CCCCCCCC(C)=O", "note": "[9-decen-2-one]", "values": [
      {"measurement": "Acute dermal irritation", "setting": "[1]", "value": "not irritant"},
      {"measurement": "Acute eye irritation", "setting": "[2]", "value": "not irritant"},
      {"measurement": "LD50", "setting": "[3]", "value": 2500, "unit": "mg/kg"}
    ]}
  ]
}
